Reference: patent publication US20090118253A1, “COMPOSITIONS AND METHODS FOR TREATING DYSFUNCTIONAL UTERINE BLEEDING” (REPROS THERAPEUTICS INC., priority 2007, published 2009)

What was measured:
[1] = tested on: progesterone-induced endometrial glandular proliferation in rabbit uterus; assay: anti-McGinty and anti-Clauberg assays in the rabbit uterus; type: in vivo
Excerpt: Also given in Table 1 are the relative biological activities of the same compounds in the rabbit uterus by the anti-McGinty and anti-Clauberg assays. Compound CDB-2914 (listed at the end of the Table) was used as the control or reference compound (rabbit Biological Activity=1.00) for these experiments because results of experiments using CDB-2914 have been published before (Hild-Petito et al., 1996; Passaro et al., 1997; Reel et al., 1998; Lamer et al., 2000). For the anti-McGinty test, immature female rabbits received a subcutaneous injection of 5 μg estradiol in 10% ethanol/sesame oil daily for 6 consecutive days. On day 7, animals underwent sterile abdominal surgery to ligate a 3-4 cm segment of both uterine horns. The test compound in appropriate solvent was injected intraluminally into the ligated segment of one uterine horn and vehicle alone into the other. A stimulating dose of progesterone (267 μg/day) was administered subcutaneously to each rabbit daily for the next three days to induce endometrial proliferation. All animals were sacrificed at day 10 for removal of the uterus where a segment central to the ligatures was removed and fixed in 10% neutral buffered formalin and submitted for histological processing. Five micron sections stained with hematoxylin and cosin were evaluated microscopically for the degree of endometrial glandular proliferation. The percent inhibition of endometrial proliferation for each rabbit was calculated and the mean of the group of five animals recorded. For the Anti-Clauberg test, immature female rabbits received a subcutaneous injection of 5 μg estradiol in 10% ethanol/sesame oil daily for 6 consecutive days. On day 7, animals received progesterone by subcutaneous injection (160 μg/day) and the experimental compound in appropriate vehicle orally or subcutaneously for five consecutive days. One group of rabbits received progesterone only. Twenty-four hours after the last dose, all animals were sacrificed for removal of the uterus which was cleaned of all fat and connective tissue, weighed to the nearest 0.2 mg and placed in 10% neutral buffered formalin for subsequent histological processing. Five micron sections stained with hematoxylin and eosin were evaluated microscopically for the degree of endometrial glandular proliferation. The percent inhibition of endometrial proliferation at each dose level of the test compound was derived by comparison with progesterone-stimulated animals alone. The data presented in Table 1 (rabbit Biol. Act.) reflects the average of the results obtained for each compound by the anti-McGinty and anti-Clauberg assays relative to CDB-2914.

[2] = tested on: rabbit progesterone receptor (rbPR) and glucocorticoid receptor (rbGR); assay: Receptor-binding assays, ratio of relative binding affinities rbPR/rbGR; conditions: ratio of relative binding affinities (RBA = EC50 of standard/EC50 of test compound x 100) for rbPR and rbGR
Method: Certain antiprogestins were tested in receptor-binding assays for their ability to bind rabbit progesterone receptor (rbPR) and glucocorticoid receptor (rbGR). Briefly, cytosol containing PR or GR were prepared in TEGMD buffer (10 mM Tris, pH 7.2, 1.5 mM EDTA, 0.2 mM sodium molybdate, 10% glycerol, 1 mM DTT) from uterus or thymus, respectively, of estradiol-primed immature rabbits. For PR binding, the cytosol was incubated with 6 nM 1,2-[^3H]progesterone (50.0 Ci/mmole) and competitors were added at concentrations from 2 to 100 nM. For binding to GR, the cytosol was incubated with 6 nM 6,7-[^3H]-dexamethasone (40 Ci/mmol) and test compounds were added at concentrations from 20 to 100 nM. After overnight incubation at 4 C, bound and unbound [^3H] steroids were separated by addition of dextran-coated charcoal and centrifugation at 2100×g for 15 min at 4 C. Supernatants containing the [3H]-steroid receptor complexes were decanted into vials containing 4 ml Optifluor (Packard Instrument Co.), vortexed, equilibrated in a liquid scintillation counter for 30 minutes and then counted for 2 minutes. The EC50 (Effective Concentration) for each standard curve and each of the compound curves was determined by entering the counting data into a four parameter sigmoidal computer program (RiaSmart® Immunoassay Data Reduction Program, Packard Instrument Co., Meriden, Conn.). Relative binding affinity (RBA) for each compound was calculated using the following equation: EC50 of standard/EC50 of test compound×100. The standards for the PR and GR assays were unlabeled progesterone and dexamethasone, respectively. The results of these experiments are summarized in Table 1, as a ratio of the relative binding affinities of each compound for the rbPR and rbGR receptors (rbPR/rbGR).

[3] = tested on: Cynomolgus monkey endometrial epithelium, uterus stroma and breast; assay: TUNEL apoptosis in cynomolgus monkey tissue; type: in vivo, Cynomolgus monkeys (Macaca fascicularis); conditions: week 36, percent apoptotic cells
Method: Apoptosis was assessed in tissue from the same animals on slides by the terminal deoxynucleotidyl transferase mediated dUTP-biotin nick end labeling (TUNEL) technique.

[4] = Six month endometriosis study: estrogen concentrations and biomarkers of bone resorption; conditions: women
Method: Thirty-nine pre-menopausal adult women diagnosed with endometriosis were the subject of a six month study of Proellex™ (CDB-4124) in the treatment of endometriosis. The study included three dose levels of CDB-4124 as well as a positive control arm. The positive control was Lucrin®, a GnRH agonist, commonly used for the treatment of endometriosis (also known as Lupron®). CDB-4124 was administered in a double blinded fashion as a daily oral capsule at dosages of 12.5mg/day (n=2), 25mg/day (n=3) and 50mg/day (n=3). Another group (n=4) were injected with a slow release formulation of Lucrin® once per month as a positive control.

[5] = tested on: pre-menopausal adult women diagnosed with endometriosis; assay: Six month endometriosis study: side effects and bleeding events; type: in vivo, human
Method: Although this was a small study and no definitive conclusions can be made from the safety data, there was no single signal of safety observed.
A similar event was not seen at the 50 mg dose during the treatment phase. Greater than normal bleeding occurred in two patients in the 50 mg CDB-4124 group after treatment was stopped and a D&C was performed in one and the other successfully managed conservatively.

[6] = tested on: Cynomolgus monkey endometrial epithelia, uterus stroma and breast; assay: BrdU incorporation, tissue proliferation in cynomolgus monkeys; type: in vivo, Cynomolgus monkeys (Macaca fascicularis); conditions: week 36, % cells positive for incorporation of BrdU, three animals per group
Method: At week 36, three animals from each group of Example 6 were injected within 24 hours of sacrifice with the thymidine analog bromodeoxyuridine (BrdU), a marker of proliferating cells and their progeny, to assess tissue proliferation. Full thickness uterine sections were stained and examined microscopically for evidence of proliferation in terms of the % cells positive for incorporation of BrdU: […]

[7] = Urinary progesterone levels (luteal phase) in cynomolgus monkeys; type: in vivo, Cynomolgus monkeys (Macaca fascicularis); conditions: n=14 per group; CDB-4124 or RU-486 oral 1.0 mg/kg/day for 36 weeks; Lupron IM once per month
Method: Cynomolgus monkeys (Macaca fascicularis) (n=14) were treated orally for 36 weeks with CDB-4124 or RU-486 at 1.0 mg/kg/day or with placebo (control). Another group (n=14) received Lupron® IM once per month. Urinary progesterone levels were measured for each animal for one month during the middle of the study (weeks 14-17) and for the last month of the study (weeks 33-36).

[8] = Estrogenic, androgenic, anti-estrogenic and anti-androgenic activities

SMILES: COCC(=O)[C@@]1(OC(C)=O)CC[C@H]2[C@@H]3CCC4=CC(=O)CCC4=C3[C@@H](c3ccc(N(C)C)cc3)C[C@@]21C [CDB-4124, 21-methoxy-17α-acetoxy-11β-(4 N,N-dimethylaminophenyl)-19-norpregna-4,9-diene-3,20-dione]
- rabbit Biol. Act. ([1]; average of anti-McGinty and anti-Clauberg results relative to CDB-2914 (=1.00)): 3.60
- antiprogestin activity in the rabbit uterus ([1]; in comparison to RU 486 and CDB-2914): strong antiprogestin activity
- rbPR/rbGR [2]: 1.58
- Breast Apo % [3]: 2.6 ± 0.9%
- Uterus epithelium Apo % [3]: 0.5 ± 0.2%
- Uterus stroma Apo % [3]: 0.5 ± 0.1%
- estrogen concentrations (mean) ([4]; all doses of CDB-4124 (12.5, 25, 50 mg/day)): > 40 pg/mL
- biomarkers of bone resorption compared with baseline ([4]; three and six months of treatment): no significant changes
- cases of non-menstrual spotting and bleeding with excessive endometrial thickening needing D&C ([5]; 12.5 mg and 25 mg CDB-4124 groups, treatment phase): two cases
- patients with greater than normal bleeding after treatment was stopped ([5]; 50 mg CDB-4124 group): two patients
- non-menstrual spotting and bleeding with excessive endometrial thickening needing D&C ([5]; 50 mg dose, treatment phase): not seen
- side effects ([5]; women, six month study): generally mild
- Breast Brdu-% [6]: 1.9 ± 0.7%
- Uterus epithelium Brdu-% [6]: 2.1 ± 2.2%
- Uterus stroma Brdu-% [6]: 1.1 ± 0.25%
- Decrease in luteal phase progesterone (number of animals) [7]: 8
- No decrease in luteal phase progesterone (number of animals) [7]: 6
- estrogenic, androgenic, anti-estrogenic, and anti-androgenic activities [8]: lack estrogenic, androgenic, anti-estrogenic, and anti-androgenic activities
